Source: ChEMBL document CHEMBL5291721, “A preclinical secondary pharmacology resource illuminates target-adverse drug reaction associations of marketed drugs” (Nat Commun, 2023)

Tests used:
Adenosine receptor A1 = target: T1, Adenosine receptor A1 (Homo sapiens, UniProt P30542)
T1 sequence (P30542 whole entry): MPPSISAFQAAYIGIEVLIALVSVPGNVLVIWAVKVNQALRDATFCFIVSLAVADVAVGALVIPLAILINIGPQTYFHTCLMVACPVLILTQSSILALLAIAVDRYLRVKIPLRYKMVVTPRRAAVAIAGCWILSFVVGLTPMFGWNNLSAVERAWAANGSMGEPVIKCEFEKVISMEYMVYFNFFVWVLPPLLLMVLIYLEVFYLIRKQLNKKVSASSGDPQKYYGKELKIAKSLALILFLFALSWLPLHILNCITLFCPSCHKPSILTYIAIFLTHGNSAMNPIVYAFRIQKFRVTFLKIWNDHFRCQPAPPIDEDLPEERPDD

Adenosine receptor A2a = Adenosine receptor A2a (Homo sapiens, UniProt P29274)
Adenosine receptor A2a, sequence (P29274 whole entry): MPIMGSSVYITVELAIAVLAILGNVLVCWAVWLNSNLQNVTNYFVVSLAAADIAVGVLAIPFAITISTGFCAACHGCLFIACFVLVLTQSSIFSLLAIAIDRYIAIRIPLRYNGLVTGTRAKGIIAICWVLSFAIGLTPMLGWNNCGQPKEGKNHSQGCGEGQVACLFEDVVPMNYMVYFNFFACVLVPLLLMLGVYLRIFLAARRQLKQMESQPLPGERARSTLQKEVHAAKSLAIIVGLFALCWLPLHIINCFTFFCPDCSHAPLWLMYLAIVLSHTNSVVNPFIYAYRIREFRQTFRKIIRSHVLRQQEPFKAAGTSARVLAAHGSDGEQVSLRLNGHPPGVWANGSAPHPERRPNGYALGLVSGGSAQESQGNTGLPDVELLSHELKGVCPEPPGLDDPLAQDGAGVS

Adenosine receptor A3 = target: T2, Adenosine receptor A3 (Homo sapiens, UniProt P0DMS8)
T2 sequence (P0DMS8 whole entry): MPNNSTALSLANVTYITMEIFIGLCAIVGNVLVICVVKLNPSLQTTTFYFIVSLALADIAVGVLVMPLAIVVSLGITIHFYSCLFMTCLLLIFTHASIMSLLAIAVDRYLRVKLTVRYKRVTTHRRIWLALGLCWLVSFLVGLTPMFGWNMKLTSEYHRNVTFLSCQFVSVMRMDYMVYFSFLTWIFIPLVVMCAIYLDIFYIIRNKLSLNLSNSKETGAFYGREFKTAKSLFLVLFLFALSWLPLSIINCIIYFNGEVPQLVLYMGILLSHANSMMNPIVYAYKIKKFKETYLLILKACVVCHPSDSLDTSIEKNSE

[1] = target: T3, Alpha-2B adrenergic receptor (Homo sapiens, UniProt P18089)
T3 sequence (P18089 whole entry): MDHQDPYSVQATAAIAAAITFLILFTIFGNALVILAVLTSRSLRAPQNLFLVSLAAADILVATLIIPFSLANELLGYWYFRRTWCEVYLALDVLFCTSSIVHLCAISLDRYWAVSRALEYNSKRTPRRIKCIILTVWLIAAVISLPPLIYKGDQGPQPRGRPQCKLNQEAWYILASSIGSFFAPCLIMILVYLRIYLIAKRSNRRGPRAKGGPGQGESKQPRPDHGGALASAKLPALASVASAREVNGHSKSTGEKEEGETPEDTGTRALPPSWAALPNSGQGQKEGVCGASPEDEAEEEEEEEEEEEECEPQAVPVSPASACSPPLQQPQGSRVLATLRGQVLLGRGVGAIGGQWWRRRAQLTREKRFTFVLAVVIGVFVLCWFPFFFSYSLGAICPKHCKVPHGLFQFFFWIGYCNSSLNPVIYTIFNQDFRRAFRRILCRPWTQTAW

[2] = target: T4, Alpha-2C adrenergic receptor (Homo sapiens, UniProt P18825); assay type: functional
T4 sequence (P18825 whole entry): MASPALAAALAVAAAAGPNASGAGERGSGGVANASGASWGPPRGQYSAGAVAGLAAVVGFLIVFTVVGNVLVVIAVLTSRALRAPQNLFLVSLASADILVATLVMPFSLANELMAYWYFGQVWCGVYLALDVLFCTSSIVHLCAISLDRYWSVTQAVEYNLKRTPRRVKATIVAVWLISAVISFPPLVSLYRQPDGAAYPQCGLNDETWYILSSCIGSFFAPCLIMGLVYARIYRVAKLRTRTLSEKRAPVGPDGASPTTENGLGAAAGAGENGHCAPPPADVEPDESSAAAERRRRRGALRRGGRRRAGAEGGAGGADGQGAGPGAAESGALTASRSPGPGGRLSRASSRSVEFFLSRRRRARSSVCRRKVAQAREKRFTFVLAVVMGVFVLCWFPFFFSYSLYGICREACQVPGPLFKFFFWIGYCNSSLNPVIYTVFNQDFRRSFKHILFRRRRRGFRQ

[3] = target: T5, Type-1 angiotensin II receptor (Homo sapiens, UniProt P30556)
T5 sequence (P30556 whole entry): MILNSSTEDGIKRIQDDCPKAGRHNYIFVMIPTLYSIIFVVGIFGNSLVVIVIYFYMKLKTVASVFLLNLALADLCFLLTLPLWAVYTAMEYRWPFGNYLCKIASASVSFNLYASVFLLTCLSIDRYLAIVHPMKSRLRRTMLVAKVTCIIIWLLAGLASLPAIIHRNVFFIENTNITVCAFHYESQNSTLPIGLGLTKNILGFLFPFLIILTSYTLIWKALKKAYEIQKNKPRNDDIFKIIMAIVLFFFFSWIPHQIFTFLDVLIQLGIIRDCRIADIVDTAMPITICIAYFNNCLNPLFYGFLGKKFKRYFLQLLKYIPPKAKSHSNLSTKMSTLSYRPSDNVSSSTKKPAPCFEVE

[4] = target: T6, Cholecystokinin receptor type A (Homo sapiens, UniProt P32238)
T6 sequence (P32238 whole entry): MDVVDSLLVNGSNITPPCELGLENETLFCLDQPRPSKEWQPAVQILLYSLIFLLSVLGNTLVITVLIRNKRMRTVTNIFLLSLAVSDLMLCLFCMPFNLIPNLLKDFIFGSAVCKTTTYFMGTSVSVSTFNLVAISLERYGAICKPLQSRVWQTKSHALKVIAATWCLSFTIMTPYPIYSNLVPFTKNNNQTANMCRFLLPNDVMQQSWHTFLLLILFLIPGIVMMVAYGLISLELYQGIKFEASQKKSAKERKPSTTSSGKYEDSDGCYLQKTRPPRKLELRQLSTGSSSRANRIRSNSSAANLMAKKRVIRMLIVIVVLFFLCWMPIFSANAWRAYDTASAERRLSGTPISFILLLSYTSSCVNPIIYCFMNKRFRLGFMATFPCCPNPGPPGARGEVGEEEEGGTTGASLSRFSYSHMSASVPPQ

[5] = target: Gamma-aminobutyric acid receptor subunit alpha-1 (Rattus norvegicus, UniProt P62813)
Gamma-aminobutyric acid receptor subunit alpha-1, sequence (P62813 whole entry): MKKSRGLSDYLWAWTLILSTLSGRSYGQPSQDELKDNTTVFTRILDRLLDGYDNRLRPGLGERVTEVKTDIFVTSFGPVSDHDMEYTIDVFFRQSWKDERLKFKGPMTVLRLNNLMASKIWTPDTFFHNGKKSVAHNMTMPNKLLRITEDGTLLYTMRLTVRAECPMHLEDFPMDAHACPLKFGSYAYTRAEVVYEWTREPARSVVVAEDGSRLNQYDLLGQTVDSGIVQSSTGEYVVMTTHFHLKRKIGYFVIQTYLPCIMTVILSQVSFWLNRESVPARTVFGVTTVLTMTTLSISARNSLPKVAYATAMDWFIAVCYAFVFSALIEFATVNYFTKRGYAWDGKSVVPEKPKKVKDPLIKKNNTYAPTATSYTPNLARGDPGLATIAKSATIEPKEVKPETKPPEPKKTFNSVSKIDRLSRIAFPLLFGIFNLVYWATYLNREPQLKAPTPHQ

[6] = target: T7, Neuropeptide Y receptor type 1 (Homo sapiens, UniProt P25929)
T7 sequence (P25929 whole entry): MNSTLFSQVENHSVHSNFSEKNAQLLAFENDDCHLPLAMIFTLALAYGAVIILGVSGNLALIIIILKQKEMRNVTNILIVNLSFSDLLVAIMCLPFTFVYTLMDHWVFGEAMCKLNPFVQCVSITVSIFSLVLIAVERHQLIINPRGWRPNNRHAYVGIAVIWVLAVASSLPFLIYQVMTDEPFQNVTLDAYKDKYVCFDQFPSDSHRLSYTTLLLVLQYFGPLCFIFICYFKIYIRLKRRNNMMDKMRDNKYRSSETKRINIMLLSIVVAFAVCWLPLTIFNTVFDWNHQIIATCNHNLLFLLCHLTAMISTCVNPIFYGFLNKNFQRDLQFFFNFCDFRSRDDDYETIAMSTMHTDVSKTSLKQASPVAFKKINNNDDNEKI
Further: assay procedure not described here.

| SMILES | AC50 (Adenosine receptor A1) [µM] | AC50 (Adenosine receptor A2a) [µM] | AC50 (Adenosine receptor A3) [µM] | AC50 [1] [µM] | AC50 [2] [µM] | AC50 [3] [µM] | AC50 [4] [µM] | AC50 [5] [µM] | AC50 [6] [µM] |
| --- | --- | --- | --- | --- | --- | --- | --- | --- | --- |
| COc1ccc(-n2nc(C(N)=O)c3c2C(=O)N(c2ccc(N4CCCCC4=O)cc2)CC3)cc1 [APIXABAN] | > 30 | > 30 | > 30 | > 30 | > 30 | > 30 | > 30 | > 30 | > 30 |
| CCN(CC)CCCN(c1ccccc1)C1Cc2ccccc2C1 [APRINDINE] | > 30 | > 30 | > 30 | > 30 | 7.9 | > 30 | > 30 | > 30 | > 30 |
| C[C@@H](Cc1ccccc1)N(C)Cc1ccccc1 [BENZPHETAMINE] | > 10 | > 10 | > 10 | 2.8 | 0.68 | > 30 | > 10 | > 10 | > 10 |
| CO/N=C(\C(=O)N[C@@H]1C(=O)N2C(C(=O)O)=C(CSc3nc(C)c(CC(=O)O)s3)CS[C@H]12)c1csc(N)n1 [CEFODIZIME] | > 30 | > 30 | > 30 | > 30 | > 30 | > 30 | > 30 | > 30 | > 30 |
| CO/N=C(\C(=O)N[C@@H]1C(=O)N2C(C(=O)[O-])=C(C[n+]3ccc(N)n3CCO)CS[C@H]12)c1csc(N)n1 [CEFOSELIS] | > 30 | > 30 | > 30 | > 30 | > 30 | > 30 | > 30 | > 30 | > 30 |
| CC(=O)OCC1=C(C(=O)O)N2C(=O)[C@@H](NC(=O)CSc3ccncc3)[C@H]2SC1 [CEPHAPIRIN] | > 10 | > 10 | > 10 | > 10 | > 10 | > 10 | > 10 | > 10 | > 10 |
| COc1ccc(C(Cl)=C(c2ccc(OC)cc2)c2ccc(OC)cc2)cc1 [CHLOROTRIANISENE] | > 30 | > 30 | 28 | > 30 | > 30 | > 30 | > 30 | > 30 | > 30 |
| Oc1cc(O)c2c(c1)O[C@H](c1ccc(O)c(O)c1)[C@@H](O)C2 [CIANIDANOL] | > 30 | > 30 | 22.2 | > 10 | > 10 | > 30 | > 30 | > 10 | > 30 |
| CCCO[C@H]1[C@@H]([C@@H](COCc2ccc(Cl)cc2)OCc2ccc(Cl)cc2)OC(OCC)[C@@H]1O (stereo partly drawn) [CLOBENOSIDE] | > 30 | > 30 | 20 | > 30 | > 30 | > 30 | > 30 | > 30 | > 30 |
| Nc1nc(Cl)nc2c1ncn2[C@@H]1O[C@H](CO)[C@@H](O)[C@@H]1F [CLOFARABINE] | 2.3 | 22.1 | 18.2 | > 30 | > 30 | > 30 | > 30 | > 10 | > 30 |
| C=C(c1ccccc1OCc1cccc(Cl)c1)n1ccnc1 [CROCONAZOLE] | > 30 | > 30 | 11.5 | > 10 | > 10 | > 30 | > 30 | > 10 | > 30 |
| CN(C)CCOC(=O)C(c1ccccc1)C1(O)CCCC1 (stereo not drawn) [CYCLOPENTOLATE] | > 10 | > 10 | > 10 | > 10 | > 30 | > 10 | > 10 | > 10 | > 10 |
| COC(=O)[C@H]1[C@H]2C[C@@H]3c4[nH]c5ccccc5c4CCN3C[C@H]2C[C@@H](OC(=O)c2cc(OC)c(OC)c(OC)c2)[C@@H]1OC [DESERPIDINE] | > 30 | > 30 | 15.8 | > 10 | 12 | > 10 | 34.4 | > 10 | > 30 |
| CC(=O)Oc1cccc2c1C(=O)c1c(OC(C)=O)cc(C(=O)O)cc1C2=O [DIACEREIN] | 24 | 24 | 17 | > 30 | > 30 | > 30 | > 30 | > 30 | > 30 |
| CCN(CC)C(C)C(=O)c1ccccc1 (stereo not drawn) [DIETHYLPROPION] | > 30 | > 30 | > 30 | 13 | > 10 | > 30 | > 30 | > 10 | > 30 |
| Cc1ccc(-c2ncc(Cl)cc2-c2ccc(S(C)(=O)=O)cc2)cn1 [ETORICOXIB] | > 10 | > 10 | > 10 | > 10 | > 10 | > 10 | > 10 | > 10 | > 10 |
| Cc1cnc(Nc2ccc(OCCN3CCCC3)cc2)nc1Nc1cccc(S(=O)(=O)NC(C)(C)C)c1 [FEDRATINIB] | 7.17 | 3.75 | 6.83 | > 10 | 7.4 | > 30 | > 30 | > 10 | > 30 |
